Measured values as given in patent publication US20240285773A1, “METHODS OF TREATING MYELODYSPLASTIC SYNDROME AND MONITORING THE TREATMENT” (Geron Corporation, priority 2023, published 2024).
“And” between values parts separate entries of the source, which are not always exact repeats. Identical values can stand only once. [nps] = N3'→P5' thiophosphoramidate linkage; {Palm} = palmitoyl lipid

System: RBC transfusion-dependent patients with IPSS low or intermediate-1 risk MDS
Test: Phase 3 trial: RBC transfusion independence (RBC-TI)
Assay type: in vivo, human
Conditions: for TI duration, median: Kaplan-Meier
Method: Patients were randomly assigned (based on a computer-generated schedule) in a 2:1 ratio to receive imetelstat or placebo, administered intravenously every 4 weeks until treatment discontinuation; crossover was not allowed. Randomization was stratified by prior RBC transfusion burden (≥4 to ≤6 or >6 units over an 8-week period during 16 weeks prior to randomization) and IPSS risk group (low or intermediate-1 risk). The starting dose of imetelstat was 7.5 mg/kg every four weeks. If a patient developed grade 3 or 4 hematologic and nonhematologic toxicities, dosing was held and, if necessary, reduced (Tables 2-4).
The primary end point was rate of RBC-TI for 8 consecutive weeks or longer. Key secondary end points included rate of 24-week TI, duration of TI, and the rate of hematologic response (hematologic improvement-erythroid [HI-E], based on modified International Working Group [IWG] 2006 criteria, and HI-E per revised IWG 2018). Additional secondary end points included relative change in number of RBC transfusions received by patients, relative change in hemoglobin, and safety. The changes in mutational status and in patient-reported fatigue over time (assessed by the Functional Assessment of Chronic Illness Therapy [FACIT] Fatigue Scale) were exploratory end points. Subgroup analyses were performed including baseline presence or absence of RS, prior RBC transfusion burden (≥4 to ≤6 or >6 RBC units/8-weeks during a 16-week period prior to randomization), and low or intermediate-1 IPSS risk categories. Subgroup analyses were also performed, including baseline mutation status as well as telomerase activity (TA), telomere lengths (TL), and human telomerase reverse transcriptase (hTERT) levels. Peripheral blood hematology, bone marrow evaluation, mutation assessment, and cytogenetic evaluation were performed centrally and responses assessed by an independent review committee (IRC). Rate of 1-year RBC-TI was reported as a post hoc analysis.
The data cutoff date for this primary analysis was 1 year after the last patient was randomized. All the efficacy analyses for primary and key secondary end points were conducted in the intent-to-treat population. […] The percentages of patients with a response for the two treatment groups were compared with a stratified Cochran-Mantel-Haenszel test at a two-sided significance level of 0.05 adjusting for stratification factors, prior RBC transfusion burden, and IPSS risk category low or intermediate-1. Multiplicity was accounted for by a sequential gatekeeping approach for the primary and key secondary end points, which were tested sequentially in the prespecified order of 8-week TI, followed by 24-week TI. Durations of RBC-TI were calculated by Kaplan-Meier method. Safety analyses were conducted in the safety population (all patients who received ≥1 dose of trial medication).
Treatment: In the patients from imetelstat treatment group, imetelstat sodium was administered as a 2-hour IV infusion every 4 weeks at 7.5 mg/kg. Supportive care, including RBC and platelet transfusions, myeloid growth factors (e.g., G-CSF (granulocyte colony stimulating factor)), and iron chelation therapy was administered as needed on study per investigator discretion. Control group received corresponding treatment without imetelstat.
End points and Analysis: • Primary end point: 8-week RBC TI. Proportion of patients without any RBC transfusion for at least eight consecutive weeks since entry to the trial (8-week TI). • Key secondary end points: • 24-week RBC TI; proportion of patients without any RBC transfusion for at least 24 consecutive weeks since entry to the trial (24-week TI). • Duration of TI; • Hematologic improvement-Erythroid (HI-E).
The 8-week RBC-TI rate was the proportion of patients without any RBC transfusion during any consecutive 8 weeks (56 days) starting from Study Day 1 until subsequent anti-cancer therapy, if any. […]

[1] = mutated transcription regulation genes
[2] = poor-prognosis genes mutated at baseline

## Imetelstat: first-in-class telomerase inhibitor; synthetic lipid-conjugated 13-mer oligonucleotide N3′→P5′-thiophosphoramidate (TAGGGTTAGACAA; all [nps], 5' {Palm}, sugars by position and methylation of C not given here)
8-week TI responders
  Difference in median RBC-TI duration vs placebo: 38.3 week
  Hazard ratio, duration of RBC-TI vs placebo: 0.23
  TI duration, median: 51.6 weeks
8-week TI responders, listed as imetelstat
  TI duration, median: 51.6 weeks and 52 weeks
>1 baseline mutation
  ≥8-week TI rate: 42.7%
  ≥24-week TI rate: 26.7%
>2 baseline mutations
  ≥8-week TI rate: 45.5%
  ≥24-week TI rate: 33.3%
>3 baseline mutations
  ≥8-week TI rate: 55.6%
  ≥24-week TI rate: 33.3%
ASXL1 mutations
  8-week TI response: 5/18
  8-week TI response rate: (27.8) %
  ≥24-week TI rate: 11.1%
ASXL1 mutations, listed as imetelstat
  8-week TI response rate: 27.8%
CUX1 mutations
  ≥8-week TI rate: 35.7%
  ≥24-week TI rate: 14.3%
DNMT3A mutations
  ≥8-week TI rate: 31.6%
  ≥24-week TI rate: 26.3%
ETV6 mutations
  8-week TI response: 1/2
  8-week TI response rate: (50.0) %
ETV6 mutations, listed as imetelstat
  8-week TI response rate: 50%
IPSS intermediate-1 risk
  8-week RBC-TI rate: 40%
IPSS low risk
  8-week RBC-TI rate: 40%
ITT N=118
  8-week TI rate: 39.8% and 40%
  16-week TI rate: 31.4%
  16-week TI, patients: 37 n
  24-week TI rate: 28%
  24-week TI, patients: 33 n
  ≥1-year TI rate: 17.8% and 18%
  ≥1-year TI, patients: 21 n
ITT N=118, 7.5 mg/kg IV every 4 weeks
  8-week TI, patients: 47 n
RUNX1 mutations
  8-week TI response: 0/2
  8-week TI response rate: (0) %
SF3B1 hot-spot A744P
  ≥8-Week RBC-TI: 100%
SF3B1 hot-spot E622D
  ≥8-Week RBC-TI: 25.0%
SF3B1 hot-spot E783K
  ≥8-Week RBC-TI: 50.0%
SF3B1 hot-spot H662Q/N/D/Y
  ≥8-Week RBC-TI: 58.3%
SF3B1 hot-spot K666R/T/Q/N
  ≥8-Week RBC-TI: 33.3%
SF3B1 hot-spot K700E
  ≥8-Week RBC-TI: 43.9%
SF3B1 hot-spot R625C/L/G
  ≥8-Week RBC-TI: 57.1%
SF3B1 hot-spot T663P
  ≥8-Week RBC-TI: 100%
TET2 mutations
  ≥8-week TI rate: 50%
  ≥24-week TI rate: 40%
TP53 mutations
  8-week TI response: 2/2
  8-week TI response rate: (100) %
Baseline SF3B1 mutations
  ≥8-week TI rate: 48.8%
  ≥24-week TI rate: 35.4%
In vivo
  8-week RBC-TI responders with a single continuous RBC-TI period: 83%
  8-week TI responders who went on to achieve 24-week TI: Approximately 70%
  ≥1-year TI among ≥8-week TI responders: 44.7% and 45%
  ≥1-year TI among ≥24-week TI responders: 63.6% and 64%
Mutated RNA spliceosome genes
  ≥8-week TI rate: 43.8%
  ≥24-week TI rate: 30.2%
Mutated epigenetic modifiers
  ≥8-week TI rate: 37.7%
  ≥24-week TI rate: 27.5%
Mutated receptors/kinases
  ≥8-week TI rate: 80.0%
  ≥24-week TI rate: 80.0%
[1]
  ≥8-week TI rate: 40.0%
  ≥24-week TI rate: 20.0%
Patients who achieved 24-week TI
  Median TI duration: 80.0 weeks
Patients with RS
  8-week RBC-TI rate: 45%
  24-week RBC-TI rate: 33%
  Difference vs placebo in TI ≥24 weeks: 28%
Patients with RS (of 73)
  8-week RBC-TI, patients: 33 patients
Patients without RS
  8-week RBC-TI rate: 32%
  24-week RBC-TI rate: 20%
  Difference vs placebo in TI ≥24 weeks: 21%
Patients without RS (of 44)
  8-week RBC-TI, patients: 14 patients
[2]
  8-week TI response: 7/22
  8-week TI response rate: (31.8) %
  ≥24-week TI rate: 9.1%
poor-prognosis genes mutated at baseline, listed as imetelstat
  8-week TI response rate: 31.8%
Prior burden >6 units/8 weeks
  8-week RBC-TI rate: 34%
Prior burden >6 units/8 weeks (of 56)
  8-week RBC-TI, patients: 19 patients
Prior burden ≥4 to ≤6 units/8 weeks
  8-week RBC-TI rate: 45%
Prior burden ≥4 to ≤6 units/8 weeks (of 62)
  8-week RBC-TI, patients: 28 patients
≥1-year TI responders
  Median duration of TI: 123 weeks
